Here are results for 27 compounds from ChEMBL document CHEMBL2150859, “Design, synthesis, and evaluation of 3,5-disubstituted 7-azaindoles as Trk inhibitors with anticancer and antiangiogenic activities” (J Med Chem, 2012).

In one experiment the test system is MCF7. Briefly: cells. The conditions noted are these: Homo sapiens, MCF7, 48 h.
Experiment [1] has as its target T1, High affinity nerve growth factor receptor (Homo sapiens, UniProt P04629). The experiment can be described thus: Inhibition of TRKA assessed as [gamma33P]ATP incorporation into substrate.
Target sequence in this assay (P04629 whole entry): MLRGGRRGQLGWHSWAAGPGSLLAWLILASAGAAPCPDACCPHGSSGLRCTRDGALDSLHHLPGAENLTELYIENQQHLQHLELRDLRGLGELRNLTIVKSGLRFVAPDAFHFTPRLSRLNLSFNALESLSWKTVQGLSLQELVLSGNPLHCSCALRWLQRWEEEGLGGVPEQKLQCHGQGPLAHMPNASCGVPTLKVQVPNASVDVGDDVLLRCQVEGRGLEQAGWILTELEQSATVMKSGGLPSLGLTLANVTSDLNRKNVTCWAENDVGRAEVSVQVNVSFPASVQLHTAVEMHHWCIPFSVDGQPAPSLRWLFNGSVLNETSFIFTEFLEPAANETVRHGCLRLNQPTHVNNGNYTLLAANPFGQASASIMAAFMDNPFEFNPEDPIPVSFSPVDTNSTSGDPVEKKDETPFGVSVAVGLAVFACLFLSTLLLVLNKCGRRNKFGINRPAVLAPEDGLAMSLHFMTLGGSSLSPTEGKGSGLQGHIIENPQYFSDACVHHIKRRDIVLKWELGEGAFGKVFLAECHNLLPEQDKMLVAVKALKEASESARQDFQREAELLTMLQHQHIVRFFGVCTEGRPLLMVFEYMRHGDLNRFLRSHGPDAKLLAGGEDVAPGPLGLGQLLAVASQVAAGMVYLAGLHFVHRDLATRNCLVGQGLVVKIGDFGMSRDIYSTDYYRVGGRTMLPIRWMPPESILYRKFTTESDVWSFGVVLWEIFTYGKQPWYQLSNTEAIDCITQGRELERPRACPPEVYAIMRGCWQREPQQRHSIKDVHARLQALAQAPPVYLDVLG
Experiment [2] deals with T1, High affinity nerve growth factor receptor. Briefly: Binding affinity to TRKA at 10 uM by high throughput binding assay relative to control.
Target sequence in this assay (P04629 33-796 limits assumed): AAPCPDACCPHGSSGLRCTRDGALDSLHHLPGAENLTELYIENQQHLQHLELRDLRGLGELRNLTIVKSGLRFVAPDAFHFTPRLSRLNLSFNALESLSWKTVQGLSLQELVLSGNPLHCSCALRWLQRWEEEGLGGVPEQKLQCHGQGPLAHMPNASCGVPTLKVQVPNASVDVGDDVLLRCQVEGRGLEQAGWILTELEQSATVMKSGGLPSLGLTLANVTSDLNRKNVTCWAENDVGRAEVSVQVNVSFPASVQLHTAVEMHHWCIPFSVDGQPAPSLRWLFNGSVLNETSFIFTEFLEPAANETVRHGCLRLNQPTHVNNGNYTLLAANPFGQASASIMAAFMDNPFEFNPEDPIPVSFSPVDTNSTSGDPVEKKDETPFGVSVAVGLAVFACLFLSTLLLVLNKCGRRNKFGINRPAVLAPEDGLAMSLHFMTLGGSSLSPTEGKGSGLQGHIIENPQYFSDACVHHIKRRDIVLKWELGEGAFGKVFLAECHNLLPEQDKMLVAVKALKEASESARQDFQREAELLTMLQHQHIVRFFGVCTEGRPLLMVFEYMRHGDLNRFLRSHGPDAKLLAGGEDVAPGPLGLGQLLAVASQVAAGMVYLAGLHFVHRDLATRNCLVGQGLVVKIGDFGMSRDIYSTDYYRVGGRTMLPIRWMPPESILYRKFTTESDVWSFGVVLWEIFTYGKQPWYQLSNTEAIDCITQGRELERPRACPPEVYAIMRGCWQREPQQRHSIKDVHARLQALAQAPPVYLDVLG
In experiment [3] the target is Phosphatidylinositol 4,5-bisphosphate 3-kinase catalytic subunit alpha isoform (Homo sapiens, UniProt P42336). The experiment can be described thus: Binding affinity to PI3Kalpha at 10 uM by high throughput binding assay relative to control.
The target of experiment [4] is T1, High affinity nerve growth factor receptor. The experiment can be described thus: Binding affinity to TRKA by high throughput assay.
Target sequence in this assay (P04629 whole entry): as the sequence (P04629 whole entry) above

Sequence of Phosphatidylinositol 4,5-bisphosphate 3-kinase catalytic subunit alpha isoform (P42336 whole entry, canonical isoform): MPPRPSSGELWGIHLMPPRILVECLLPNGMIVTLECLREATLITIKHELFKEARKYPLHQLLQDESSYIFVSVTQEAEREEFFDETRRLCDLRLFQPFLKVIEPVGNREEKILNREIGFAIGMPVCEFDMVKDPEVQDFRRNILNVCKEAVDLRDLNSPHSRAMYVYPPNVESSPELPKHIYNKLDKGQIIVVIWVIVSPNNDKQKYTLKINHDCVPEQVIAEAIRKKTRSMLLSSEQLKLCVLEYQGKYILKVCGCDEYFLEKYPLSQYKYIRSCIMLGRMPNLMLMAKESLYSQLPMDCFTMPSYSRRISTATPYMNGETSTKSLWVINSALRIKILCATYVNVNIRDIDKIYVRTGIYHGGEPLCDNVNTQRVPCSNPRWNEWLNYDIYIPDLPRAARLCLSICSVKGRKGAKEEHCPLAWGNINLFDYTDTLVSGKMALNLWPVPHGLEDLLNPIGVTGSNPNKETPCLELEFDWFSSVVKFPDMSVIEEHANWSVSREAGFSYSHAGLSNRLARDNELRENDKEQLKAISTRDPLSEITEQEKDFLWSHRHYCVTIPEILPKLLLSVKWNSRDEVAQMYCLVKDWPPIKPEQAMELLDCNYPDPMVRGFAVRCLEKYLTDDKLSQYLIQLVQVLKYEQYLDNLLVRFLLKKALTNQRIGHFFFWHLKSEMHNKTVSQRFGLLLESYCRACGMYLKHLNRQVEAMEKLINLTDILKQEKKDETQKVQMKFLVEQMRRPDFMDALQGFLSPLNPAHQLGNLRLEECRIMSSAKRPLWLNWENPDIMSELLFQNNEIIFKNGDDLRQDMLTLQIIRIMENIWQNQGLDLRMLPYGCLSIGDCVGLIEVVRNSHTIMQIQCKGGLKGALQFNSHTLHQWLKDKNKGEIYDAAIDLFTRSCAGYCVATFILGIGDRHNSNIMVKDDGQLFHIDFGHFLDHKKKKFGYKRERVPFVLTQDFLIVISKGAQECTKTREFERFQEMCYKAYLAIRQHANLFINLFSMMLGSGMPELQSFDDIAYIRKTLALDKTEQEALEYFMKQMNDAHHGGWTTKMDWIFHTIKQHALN
Description for MCF7: Cytotoxicity against human MCF7 cells after 48 hrs by MTT assay

`Nc1cc(NS(=O)(=O)c2ccccc2)cc(-c2cnc3[nH]cc(-c4ccncc4)c3c2)c1`: the values for the IC50 (in the experiment with MCF7; in experiment [1]) were 8800 nM and 9.4 nM, respectively.
Take `CC(=O)Nc1cccc(-c2cnc3[nH]cc(-c4ccncc4)c3c2)c1`: the IC50 (in general, the concentration needed to halve the response being measured) in the experiment on MCF7 came out at 9100 nM; in experiment [1], 34.3 nM.
Consider `CS(=O)(=O)Nc1cc(N)cc(-c2cnc3[nH]cc(-c4ccncc4)c3c2)c1`, for which the 50% inhibitory concentration (IC50) with MCF7 is above 30000 nM; in experiment [1], 33.8 nM.
Consider `Nc1cccc(-c2cnc3[nH]cc(-c4ccccc4)c3c2)c1`, for which the Activity in experiment [2] is 0.3%; in experiment [3], 100%. Binding in experiment [4] was put at a Kd of 88 nM.
Consider `CN(C)CCOc1cc(N)cc(-c2cnc3[nH]cc(-c4ccncc4)c3c2)c1`, for which the IC50 with MCF7 stood at 11200 nM; in experiment [1], 13.6 nM.
`COc1ccc(-c2cnc3[nH]cc(-c4ccncc4)c3c2)cc1N`: the half-maximal inhibitory concentration (IC50) with MCF7 came out at 8700 nM; in experiment [1] it was 33.2 nM.
`Nc1cc(-c2cnc3[nH]cc(-c4ccncc4)c3c2)ccc1Cl`: the results for the half-maximal inhibitory concentration (IC50) (with MCF7; in experiment [1]) were 12000 nM and 53.7 nM, respectively.
Taken in the same sequence, the figures for `Nc1cc(-c2cnc3[nH]cc(-c4ccncc4)c3c2)ccc1C(=O)N1CCOCC1` were 8500 nM and 88.6 nM.
Taken in the same sequence, the figures for `Nc1cc(NS(=O)(=O)c2ccc(F)cc2F)cc(-c2cnc3[nH]cc(-c4ccncc4)c3c2)c1` were 6600 nM and 2.97 nM.
Turning to `COc1cc(N)cc(-c2cnc3[nH]cc(-c4ccncc4)c3c2)c1`, the half-inhibitory concentration (IC50) in the experiment on MCF7 stood at 8500 nM; in experiment [1], 18.6 nM.
Turning to `N#Cc1cccc(-c2c[nH]c3ncc(-c4cccc(N)c4)cc23)c1`, the Activity in experiment [2] came to 2.6%; in experiment [3] it was 98%. Besides, the affinity in experiment [4], expressed as Kd, was 270 nM.
For `COc1ccc(-c2c[nH]c3ncc(-c4cccc(N)c4)cc23)cc1OC`, the values for the Activity in experiment [2] and in experiment [3] were 1.3% and 59%, respectively. Also, in experiment [4], the Kd (commonly a measure of binding affinity in units of concentration) was 125 nM.
With `CS(=O)(=O)Nc1cccc(-c2c[nH]c3ncc(-c4cncc(NS(=O)(=O)c5ccccc5)c4)cc23)c1`, the Activity in experiment [2] was found to be 9.6%; in experiment [3], 0.9%.
Turning to `Cc1ccc(S(=O)(=O)Nc2cc(N)cc(-c3cnc4[nH]cc(-c5ccncc5)c4c3)c2)cc1`, the IC50 worked out at 10400 nM with MCF7 and 4.62 nM in experiment [1].
The matching figures for `Nc1cncc(-c2cnc3[nH]cc(-c4ccncc4)c3c2)c1`: 5100 nM and 69.6 nM.
Taken in the same sequence, the figures for `CN(C)CCOc1ccc(-c2cnc3[nH]cc(-c4ccncc4)c3c2)cc1N` were 3100 nM and 47 nM.
For the compound `Nc1cc(C(=O)N2CCOCC2)cc(-c2cnc3[nH]cc(-c4ccncc4)c3c2)c1`, the concentration for half-maximal inhibition (IC50) in the experiment on MCF7 was above 30000 nM; in experiment [1], 64.7 nM.
In the case of `CC(=O)Nc1cc(N)cc(-c2cnc3[nH]cc(-c4ccncc4)c3c2)c1`, the half-maximal inhibitory concentration (IC50) is above 30000 nM in the experiment with MCF7 and 5.41 nM in experiment [1].
On to `COc1ccc(N)cc1-c1cnc2[nH]cc(-c3ccncc3)c2c1`, for which the values for the half-inhibitory concentration (IC50) (in the experiment on MCF7; in experiment [1]) were 5400 nM and 110 nM, respectively.
`Nc1ccc(-c2cnc3[nH]cc(-c4ccncc4)c3c2)cc1`: the IC50 with MCF7 amounted to 7700 nM; in experiment [1] it was 25 nM.
Taken in the same sequence, the figures for `COc1cccc(-c2cnc3[nH]cc(-c4ccncc4)c3c2)c1` were 11700 nM and 22.7 nM.
On to `COc1ccc(-c2c[nH]c3ncc(-c4cccc(C#N)c4)cc23)cc1OC`, for which the Activity in experiment [2] stood at 26%; in experiment [3] it was 69%.
Consider `Nc1ccc(NS(=O)(=O)c2ccccc2)c(-c2cnc3[nH]cc(-c4ccncc4)c3c2)c1`, for which the IC50 in experiment [1] stood at 3170 nM.
Consider `Nc1cc(OCCN2CCOCC2)cc(-c2cnc3[nH]cc(-c4ccncc4)c3c2)c1`, for which the 50% inhibitory concentration (IC50) in the experiment on MCF7 amounted to 11200 nM; in experiment [1], 8.36 nM.
For the compound `CN(C)c1cccc(-c2cnc3[nH]cc(-c4ccncc4)c3c2)c1`, the half-inhibitory concentration (IC50) with MCF7 was 12100 nM; in experiment [1] it was 26.5 nM.
As to `CNc1cccc(-c2cnc3[nH]cc(-c4ccncc4)c3c2)c1`, the half-maximal inhibitory concentration (IC50) came out at 4500 nM in the experiment with MCF7 and 31.4 nM in experiment [1].
With `Cc1ccc(-c2cnc3[nH]cc(-c4ccncc4)c3c2)cc1N`, the half-maximal inhibitory concentration (IC50) in the experiment with MCF7 was 2800 nM; in experiment [1], 22.2 nM.
